Literature values in US20080011293A1, “Stable Xylometazoline and Oxymetazoline Solution” (priority 1999, published 2008).
Where two headings read alike, the source gives them in different places.

Tested on: Pseudomonas aeruginosa

| SMILES | concentration above which the inhibitory effect sets in (pH of 7.4 (neutral)) | concentration required to trigger the inhibitory effect (under acid conditions) [% by weight] | concentration above which the inhibitory effect sets in (pH of 5.6 adjusted using HCl and NaOH) |
| --- | --- | --- | --- |
| OC[C@@H](O)[C@@H](O)[C@H](O)[C@@H](O)CO [sorbitol] | identical | 40 | – |
| OCC(O)CO [glycerol] | above 30 % by weight | – | above 25 % by weight |
